Data from publication PMC4904246 (Journal of Medicinal Chemistry, 2016).
Where two headings read alike, the source gives them in different places.

Legend:
[1] = target: hERG K+ channel (Homo sapiens, UniProt Q12809); details: human, plasma
[2] = plasma; cited from earlier work
[3] = rat plasma; cited from earlier work
[4] = mouse plasma; cited from earlier work
[5] = scaled; cited from earlier work
[6] = cited from earlier work
[7] = scaled; cited from earlier work; remark: listed apart in the source
[8] = cited from earlier work; remark: listed apart in the source
[9] = fed state simulated intestinal fluid, pH 5.8 (footnote c); cited from earlier work
[10] = test system: P. falciparum Pf3D7_0087/N9 parasites; details: cited from earlier work
[11] = kinetic aqueous solubility by nephelometry; type: physicochemical; details: pH 6.5, range following 30 min at room temperature
[12] = plasma protein binding by ultracentrifugation, human plasma; type: in vitro ADME
[13] = plasma protein binding by ultracentrifugation, rat plasma; type: in vitro ADME
[14] = plasma protein binding by ultracentrifugation, mouse plasma; type: in vitro ADME; details: mouse plasma, ultracentrifugation
[15] = in vitro metabolism, human liver microsomes; type: in vitro ADME
[16] = in vitro metabolism, rat liver microsomes; type: in vitro ADME; details: from rat microsomal CLint using physiological scaling factors
[17] = in vitro metabolism, mouse liver microsomes; type: in vitro ADME
[18] = target: T1, PvDHODH (Plasmodium vivax, UniProt A5K1N1); details: PvDHODH IC50 higher than PfDHODH IC50
T1 sequence (A5K1N1 160-572): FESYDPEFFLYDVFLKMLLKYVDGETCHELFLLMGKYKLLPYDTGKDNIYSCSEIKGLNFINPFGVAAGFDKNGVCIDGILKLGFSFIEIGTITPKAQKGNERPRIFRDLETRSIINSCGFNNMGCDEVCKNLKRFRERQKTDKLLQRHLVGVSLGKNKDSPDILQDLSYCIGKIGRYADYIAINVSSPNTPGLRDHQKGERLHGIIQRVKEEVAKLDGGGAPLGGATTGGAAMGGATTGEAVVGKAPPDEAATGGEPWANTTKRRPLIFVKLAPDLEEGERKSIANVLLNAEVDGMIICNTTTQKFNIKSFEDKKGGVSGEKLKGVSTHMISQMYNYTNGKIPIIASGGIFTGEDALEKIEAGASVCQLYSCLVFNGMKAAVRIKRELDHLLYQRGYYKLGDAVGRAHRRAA

[19] = in vivo; details: Sprague-Dawley, rat, plasma, iv
[20] = target: dog DHODH (Canis lupus familiaris, UniProt A0A8I3MWX2); test: biochemical
dog DHODH, sequence (A0A8I3MWX2 1-406): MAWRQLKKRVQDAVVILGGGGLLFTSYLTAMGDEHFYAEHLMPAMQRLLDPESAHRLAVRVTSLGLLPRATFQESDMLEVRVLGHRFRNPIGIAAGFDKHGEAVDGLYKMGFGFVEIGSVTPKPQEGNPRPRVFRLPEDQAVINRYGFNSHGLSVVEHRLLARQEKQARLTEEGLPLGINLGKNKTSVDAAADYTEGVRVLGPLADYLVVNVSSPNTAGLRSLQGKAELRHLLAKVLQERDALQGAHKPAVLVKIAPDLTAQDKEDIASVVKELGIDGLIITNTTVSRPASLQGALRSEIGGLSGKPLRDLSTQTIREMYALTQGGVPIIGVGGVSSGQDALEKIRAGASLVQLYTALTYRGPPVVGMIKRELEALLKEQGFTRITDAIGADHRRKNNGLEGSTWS

[21] = 1 QD, converted to different units

hERG K+ channel, sequence (Q12809 whole entry): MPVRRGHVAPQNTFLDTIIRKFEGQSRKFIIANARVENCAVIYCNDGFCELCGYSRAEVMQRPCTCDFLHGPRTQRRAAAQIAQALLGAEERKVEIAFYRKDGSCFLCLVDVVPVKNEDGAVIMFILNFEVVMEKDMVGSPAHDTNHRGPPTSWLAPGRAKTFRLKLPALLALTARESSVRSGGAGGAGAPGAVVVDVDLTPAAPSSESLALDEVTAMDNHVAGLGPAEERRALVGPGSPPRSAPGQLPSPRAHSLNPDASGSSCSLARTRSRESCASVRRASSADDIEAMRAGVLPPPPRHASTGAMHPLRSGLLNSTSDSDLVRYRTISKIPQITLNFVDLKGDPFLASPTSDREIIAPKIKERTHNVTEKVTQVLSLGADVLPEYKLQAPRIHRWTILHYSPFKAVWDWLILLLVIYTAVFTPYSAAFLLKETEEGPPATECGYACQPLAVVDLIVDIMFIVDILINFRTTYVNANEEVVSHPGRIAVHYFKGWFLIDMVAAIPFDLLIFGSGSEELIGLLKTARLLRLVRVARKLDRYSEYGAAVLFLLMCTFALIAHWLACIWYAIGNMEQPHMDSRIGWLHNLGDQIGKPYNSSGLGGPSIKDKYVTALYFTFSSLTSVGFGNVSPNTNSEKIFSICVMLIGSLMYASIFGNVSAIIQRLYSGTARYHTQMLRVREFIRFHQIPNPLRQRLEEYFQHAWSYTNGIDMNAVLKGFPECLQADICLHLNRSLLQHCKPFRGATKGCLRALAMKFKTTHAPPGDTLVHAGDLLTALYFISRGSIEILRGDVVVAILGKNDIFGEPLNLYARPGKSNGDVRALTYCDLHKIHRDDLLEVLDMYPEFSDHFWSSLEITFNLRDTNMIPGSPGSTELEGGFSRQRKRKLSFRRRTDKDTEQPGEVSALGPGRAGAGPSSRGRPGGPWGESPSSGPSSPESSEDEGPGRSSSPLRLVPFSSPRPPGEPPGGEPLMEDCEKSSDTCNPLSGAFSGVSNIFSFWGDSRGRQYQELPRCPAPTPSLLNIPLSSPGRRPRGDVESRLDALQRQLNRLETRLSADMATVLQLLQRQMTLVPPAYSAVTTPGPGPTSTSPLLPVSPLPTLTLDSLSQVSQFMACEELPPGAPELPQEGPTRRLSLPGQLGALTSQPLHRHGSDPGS

SMILES: Cc1cc(Nc2ccc(S(F)(F)(F)(F)F)cc2)n2nc(C(C)(F)F)nc2n1 [Compound 1, 2-(1,1-difluoroethyl)-5-methyl-N-[4-(pentafluoro-λ^6-sulfanyl)phenyl]-[1,2,4]triazolo[1,5-a]pyrimidin-7-amine]
- unbound plasma concentration at likely therapeutic doses lower than the IC50 for hERG channel inhibition [1]: 70–320 fold
- PPB human (% bound) [2]: 99.9 % bound
- PPB rat (% bound) [3]: 97.7 % bound
- PPB mouse (% bound) [4]: 99.7 % bound
- predicted in vivo CLint human [5]: 3.5 mL/min/kg
- in vitro CLint rat ([6]; rat liver microsomes): 1.8 μL/min/mg protein
- predicted in vivo CLint rat ([6]; rat, scaled): 3.1 mL/min/kg
- predicted in vivo CLint mouse [7]: 7.2 mL/min/kg
- apparent T1/2 ([8]; rat IV […], […]): 13 h
- oral BA ([8]; rat): 57%
- solubility FeSSIF pH 5.8 [9]: 27.6 ^c μg/mL
- ED90 ([10]; 1, QD dosing): 8.1 mg/kg
- AUCED90 [10, 21]: 45.7 μM·h/day
- ED90 [10, 21]: 8.1 mg/kg/day

SMILES: Cc1cc(NC2CCc3cc(Br)ccc3C2)n2nc(C(C)(F)F)nc2n1 (centres unmarked) [Compound 11, 2-(1,1-Difluoroethyl)-N-(6-bromo-1,2,3,4-tetrahydronaphthalen-2-yl)-5-methyl-[1,2,4]triazolo[1,5-a]pyrimidin-7-amine]
- kinetic solubility pH 6.5 [11]: 3.1–6.3 μg/mL
- PPB human (% bound) [12]: 99.0 % bound
- PPB rat (% bound) [13]: 99.7 % bound
- PPB mouse (% bound) [14]: 99.2 % bound
- predicted in vivo CLint human ([15]; from human microsomal CLint using physiological scaling factors): < 5.8 mL/min/kg
- in vitro CLint human ([15]; human liver microsomes): < 7 μL/min/mg protein
- predicted in vivo CLint rat [16]: 19 mL/min/kg
- predicted in vivo CLint mouse ([17]; from mouse microsomal CLint using physiological scaling factors): 67 mL/min/kg
- in vitro CLint mouse ([17]; mouse liver microsomes): 26 μL/min/mg protein
- difference of IC50 P. vivax DHODH versus PfDHODH [18]: 5–8 fold
- clearance [19]: 2.8 mL/min/kg
- IC50 [20]: > 100 µM
